In patent publication US12637476B2, “Substituted carbamate macrocyclic compounds and related methods of treatment” (Alkermes, Inc., priority 2021, dated 2026):

Molecular target: T1, human orexin-2 receptor (OX2R) (Homo sapiens, UniProt O43614)
T1 construct: expressed in transfected cells; host or cells: T-Rex CHO cells, induced with doxycycline
T1 sequence (O43614 1-444): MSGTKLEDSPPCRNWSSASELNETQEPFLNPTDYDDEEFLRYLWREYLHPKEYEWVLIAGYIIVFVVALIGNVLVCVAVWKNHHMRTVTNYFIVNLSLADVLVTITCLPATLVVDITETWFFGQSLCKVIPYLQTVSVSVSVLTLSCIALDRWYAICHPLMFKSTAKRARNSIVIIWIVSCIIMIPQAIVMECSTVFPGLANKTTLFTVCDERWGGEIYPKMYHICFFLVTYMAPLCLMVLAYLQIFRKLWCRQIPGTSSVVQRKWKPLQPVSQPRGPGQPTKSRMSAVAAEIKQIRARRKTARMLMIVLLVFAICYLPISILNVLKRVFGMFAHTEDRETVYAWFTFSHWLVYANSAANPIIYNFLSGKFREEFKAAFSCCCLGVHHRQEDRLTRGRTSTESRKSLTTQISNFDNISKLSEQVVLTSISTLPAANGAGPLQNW
Assay: Human OX2R IP1 assay
Assay type: cell-based
Settings: T-Rex CHO cells stably overexpressing human OX2R, IP1 accumulation, 1 hr at 37 degrees C
Experimental: T-Rex CHO cells stably overexpressing the human orexin-2 receptor (OX2R) were induced overnight with 1 μg/mL of doxycycline in a T225 flask. 24 hours post induction, cells were lifted with accutase and plated into a 384-well proxy plate at 30,000 cells/well. Cells were then treated with different test compounds in 1× stimulation buffer containing 10 mM Hepes, 1 mM CaCl2, 0.5 mM MgCl2, 4.2 mM KCl, 146 mM NaCl, 5.5 mM glucose, and 50 mM LiCl, pH 7.4, for 1 hr at 37 degrees C. Following incubation, the reaction was terminated by the addition of detection mix, which is composed of IP1-d2 and anti-IP1-cryptate diluted in lysis buffer as well as 1× stimulation buffer. The plates were allowed to incubate for 1 hour at room temperature and were then read in the EnVision® multimode plate reader, measuring inositol phosphate levels.
Cisbio IP1 is a cell-based functional assay quantifying the accumulation of inositol monophosphate (IP), a metabolite released as a result of orexin 2 receptor activation through the phospholipase C-Gq signaling pathway. This is a competitive immunoassay in which the IP1 produced by the cells upon receptor activation competes with the IP1 analog coupled to the d2 fluorophore (acceptor) for binding to an anti-IP1 monoclonal antibody labeled with Eu cryptate (donor). The measured HTRF-FRET based signal is inversely proportional to the IP1 concentration produced.
The EC50 values reported in Table 2 were obtained according to the human OX2R IP1 assay described above. Data are the mean EC50 values±S.E.M.

`CS(=O)(=O)N[C@H]1CCCN2C(=O)COC(=O)N(C3CC3)[C@H]3CC[C@H](CC3)OC[C@@H]12` [Compound 3] and `CS(=O)(=O)N[C@H]1CCCN2C(=O)COC(=O)N(CC3CC3)[C@H]3CC[C@H](CC3)OC[C@@H]12` [Compound 10] fall in the same range of EC50: 100 to 1000 nM for the first, 100 to 1000 nM for the second.

`CCN1C(=O)OCC(=O)N2CCC[C@H](NS(C)(=O)=O)[C@@H]2CO[C@H]2CC[C@@H]1CC2` [Compound 1] and `CN1C(=O)OCC(=O)N2CCC[C@H](NS(C)(=O)=O)[C@@H]2CO[C@H]2CC[C@@H]1CC2` [Compound 2] fall in the same range of EC50: 100 to 1000 nM for the first, 100 to 1000 nM for the second.

Compound `CS(=O)(=O)N[C@H]1CCCN2C(=O)COC(=O)N(CC(F)(F)F)[C@H]3CC[C@H](CC3)OC[C@@H]12` [Compound 11] has an EC50 of over 1000 nM.
